Experimental data published in patent US20260023070A1, “OPTOGENETIC ALPHA-SYNUCLEIN AGGREGATION SYSTEM-BASED COMPOUND SCREENING PLATFORM IN PD-hiPSC-mDA NEURONS” (The Johns Hopkins University, priority 2022, published 2026).

How the values were obtained:
opto-α-syn SH-SY5Y cells = experiment: OASIS-based high-content imaging assay of light-induced α-syn aggregation (5G4 staining, Aggregates Induction Score); assay type: cell-based, human; conditions: for AIS, aggregates induction score: validation of 19 hits, 24-well plates, blue light, AIS normalized to positive control (blue light, DMSO) set as 1.0; for AIS compared to blue light-illuminated DMSO control: two independent experiments, 24-well culture conditions, blue light stimulation
Method: The opto-α-syn expressing SH-SY5Y cells were seeded in 96-well black flat bottom imaging microplates (Falcon) at 30,000 cells per well in 100 μL of complete media using E1-ClipTip electronic multichannel pipette (Thermo Fisher Scientific) and incubated in 37° C. and 5% CO2 humidified incubator. After 18 h of incubation, 10 μL of 10 μM compounds (column 2 to 10) or 1% DMSO (column 1 and 12) were added (final concentration of DMSO is 0.1%). In order to induce aggregations, the plates were illuminated with blue light (26 μW/mm^2) on customized blue light illumination 96-well plates for 2 h. Afterward, cells were fixed in 4% paraformaldehyde (PFA) for 15 min and stained with the aggregated-α-syn antibody (5G4) after permeabilization with 0.1% Triton X-100/0.5% BSA/PBS solution. […] To analyze images, the automated aggregation quantification algorithm and cell counting algorithm in the form of macro are developed using ImageJ software. Briefly, the algorithm includes the inversion, subtracting background, threshold selection, analyzing particles with ranged size and circularity. The Aggregates Induction Score (AIS) is calculated using, the following equation: […]
where N^agg is the number of aggregates, ^Ntotal is the number of total cells. The AIS in each well is normalized by the AIS in positive control which is set as 1.0. […] The hit selection strategy was based on calculated AIS; hits were defined as AIS<0.5. […] Two independent experiments were performed, and total 10 images per well are analyzed to calculate AIS.
As illustrated in FIGS. 8A-8E, high-content imaging screening with the optogenetic α-syn aggregation system was performed, following the schematic representation of the process of high-content imaging (HCI) screening with optogenetics-assisted method of alpha-synuclein aggregation induction system (OASIS) (FIG. 8A). SH-SY5Y cells expressing opto-α-syn were in dark or exposed to blue light (26 μW/mm^2 at 470 nm, 1 Hz, 1 s) for 1.5 h under 96-well plate culture conditions, and then immunostained with 5G4 antibody. The equation of Aggregates Induction Score (AIS) (FIG. 8B) was used for the calculation of Z′-factor for HCI screening with OASIS (FIG. 8C). […] Arrow represents the degree of separation (Z′-factor) between light-illuminated and darkness controls. […] Detailed information of numbered compounds was described in Table 1. One-way ANOVA followed by Dunnett's post hoc test (n=10 or 20, 5 or 10 images each from two independent experiments). *P<0.05, **P<0.01, ***P<0.001, ****P<0.0001.
As illustrated in FIGS. 9A-9B, high-content imaging screening with the optogenetic α-syn aggregation system was performed. The measurement of 5G4^+ aggregates in opto-mock or opto-α-syn SH-SY5Y neuronal cells was assessed. Cells were in dark or exposed to blue light (26 μW/mm^2 at 470 nm, 1 Hz, 1 s) for 1.5 h, and then immunostained with 5G4 antibody. […] Images were converted to grayscale, and a threshold was adjusted to exclude the background based on the size of particles. Once the value of threshold was determined, all the images were applied with the fixed threshold, and then the number of aggregates was measured (FIG. 9A). Number of DAPI from the original images were counted (FIG. 9B). Representative images of opto-α-syn SH-SY5Y neuronal cells treated with 19 compounds under 24-well plate culture conditions were imaged. SH-SY5Y cells expressing opto-α-syn were in dark or exposed to blue light (34 μW/mm^2 at 470 nm, 1 Hz, 0.5 s) for 1.5 h, and then immunostained with 5G4 antibody.

[1] = system: blue light-illuminated opto-α-syn-mDA neurons; experiment: Autophagy and aggregate clearance in blue light-illuminated opto-α-syn-mDA neurons; assay type: cell-based, human; conditions: additional treatment with BAG 956, blue light-illuminating condition
Method: Because autophagy can be activated by the inhibition of PI 3-kinase (PI3K) or the PDK1 pathway, it was tested whether treatment with BAG 956 can induce the autophagic flux to decrease α-syn aggregates in opto-α-syn mDA neurons and MOs.

[2] = system: opto-α-syn PD hiPSC-derived mDA neurons; experiment: Light-induced α-syn aggregation and neurotoxicity in opto-α-syn PD hiPSC-derived mDA neurons; assay type: cell-based, human; conditions: blue light 7 days; compared to DMSO control; significant at 1 and 10 nM CDC, 10 and 100 nM BAG
Method: Whether these potential hit compounds can inhibit α-syn aggregation and rescue aggregation-induced neuronal toxicity was tested on PD hiPSC-derived mDA neurons. The top 5 ranked small compounds in FIGURE SE were selected and these compounds to were used to treat opto-α-syn PD hiPSC-derived mDA neurons at three different concentrations (1 nM, 10 nM, 100 nM) with blue light stimulation. […] Overall, the two compounds were finally selected among the potential hit drugs from our novel opto-α-syn neuronal cell model-based primary screening (FIG. 11D), and they considerably rescued neuronal cell death from aggregation-induced TH^+ mDA neuron-selective toxicity in PD-iPSC derived neurons. To identify possible molecules involved in this compound-mediated recovery of TH^+ mDA neurons, RNA-sequencing (RNA-seq) analysis was performed with four different samples (dark condition with DMSO, blue light stimulation with DMSO, blue light stimulation with BAG treatment, and blue light stimulation with CDC treatment). To find BAG- or CDC-responsive genes, differentially expressed genes (DEGs) of DMSO-treated samples upon blue light stimulation were first extracted, and then the DEGs were filtered with criteria of which became non-DEGs in response to CDC or BAG treatment. […]
The effect of 5 selected compounds on opto-α-syn-expressing PD hiPSC-derived mDA neurons was evaluated. […]

[3] = system: mouse primary neurons treated with α-syn PFF; experiment: α-syn PFF model in mouse primary neurons (TX-insoluble pathologic α-syn); assay type: cell-based
Method: To validate the effects of these two compounds on the OASIS-independent model, α-syn PFF were treated with mouse primary neurons and non-OASIS-human PD hiPSC-derived mDA neurons with CDC 021 and BAG 956.

Structure (SMILES)	AIS, aggregates induction score (opto-α-syn SH-SY5Y cells)	further results
CCOC(=O)c1ccc(N(C)c2csc(-c3ccccc3)n2)cc1 [Neuropathiazol]	0.73	–
CC(=O)c1cc2c(o1)C(=O)c1ccccc1C2=O [Napabucasin]	0.97	–
CO/C1=C\C(C)=C\[C@@H](C)[C@@H](O)[C@@H](C)C/C(C)=C/C=C/[C@H](OC)[C@@H]([C@@H](C)[C@@H](O)[C@H](C)[C@@]2(O)C[C@@H](O)[C@H](C)[C@@H](C(C)C)O2)OC1=O [bafilomycin A1]	–	BAG 956-mediated level of TH+ mDA neurons [1]: reversed; BAG 956-mediated reduction of 5G4+ α-syn aggregates [1]: reversed
CC1(C)C(=O)N=C2C1=C(O)C(=O)c1ccccc12 [BVT 948]	0.36	AIS compared to blue light-illuminated DMSO control (opto-α-syn SH-SY5Y cells): significant decrease
CC(C)c1ccc2oc3nc(N)c(C(=O)O)cc3c(=O)c2c1 [Amlexanox]	0.53	–
Cc1cc(Nc2nc(N[C@@H](C)c3ncc(F)cn3)ncc2Cl)n[nH]1 [AZD 1480]	0.31	AIS compared to blue light-illuminated DMSO control (opto-α-syn SH-SY5Y cells): significant decrease
O=C1NC(=O)c2c1c1c3ccccc3[nH]c1c1[nH]c3ccccc3c21 [Arcyriaflavin A]	0.37	AIS compared to blue light-illuminated DMSO control (opto-α-syn SH-SY5Y cells): significant decrease
CCCCCCCCCCC(C)(C)C(=O)Nc1c(OC)cc(OC)cc1OC [Compound C1976, CI 976]	0.63	–
O=C(O)c1ccccc1C(=O)Nc1ccc(-c2ccccc2)cc1 [Kartogenin]	0.98	–
C[C@@H]1C[C@H]2[C@@H]3CCC4=CC(=O)C=C[C@]4(C)[C@@]3(F)[C@@H](O)C[C@]2(C)[C@@]1(O)C(=O)CO [Dexamethasone]	0.74	–
CN(C)CCc1c[nH]c2ccc(Cn3cncn3)cc12 [Rizatriptan benzoate]	0.59	–
CCCN(CCC)CCc1ccc(OC)c(OCCc2ccccc2)c1.Cl [NE 100 hydrochloride]	0.53	–
COc1c(C)c2c(c(O)c1C/C=C(\C)CCC(=O)OCCN1CCOCC1)C(=O)OC2 [Mycophenolate mofetil]	0.71	–
CCc1c(C(=O)Nc2cc(S(=O)(=O)N(CC)CC)ccc2O)[nH]c(C)c1C(C)=O [XD 14]	0.75	–
COc1cc2nc(N3CCC(N4CCCCC4)CC3)nc(NC3CCCCCC3)c2cc1OC.Cl.Cl [C 021 dihydrochloride]	0.19	AIS compared to blue light-illuminated DMSO control (opto-α-syn SH-SY5Y cells): significant decrease; survival rate of TH+ mDA neurons [2]: significant increase; pathologic α-syn in the Triton X-100 (TX)-insoluble fraction [3]: significantly reduced
O=C1CCc2cc(OCCCCc3nnnn3C3CCCCC3)ccc2N1 [Cilostazol]	0.65	–
NS(=O)(=O)c1cc2c(cc1Cl)NC(C1CC3C=CC1C3)NS2(=O)=O (stereo not shown) [Cyclothiazide]	0.68	–
COc1c(C)c2c(c(O)c1C/C=C(\C)CCC(=O)O)C(=O)OC2 [Mycophenolic acid]	0.57	–
